Results on 20 compounds are retold here after BindingDB's records for doi:10.1016/0960-894X(96)00231-4 (1996).

The target of assay [1] is D(2) dopamine receptor (Rattus norvegicus) (UniProt P61169). Kind of assay: Binding affinity at Dopamine D2 receptors in rat striatum by [3H]spiperone displacement.
Assay [2] in a line: Binding affinity at Dopamine D3 receptors in rat striatum by [3H]-spiperone displacement.
Assay [3] can be described thus: Stimulation of mitogenesis in Dopamine receptor D3 transfected CHO p-5 cells.

Structures are written as SMILES.

Sequence of D(2) dopamine receptor (Rattus norvegicus) (P61169 whole entry, looked up): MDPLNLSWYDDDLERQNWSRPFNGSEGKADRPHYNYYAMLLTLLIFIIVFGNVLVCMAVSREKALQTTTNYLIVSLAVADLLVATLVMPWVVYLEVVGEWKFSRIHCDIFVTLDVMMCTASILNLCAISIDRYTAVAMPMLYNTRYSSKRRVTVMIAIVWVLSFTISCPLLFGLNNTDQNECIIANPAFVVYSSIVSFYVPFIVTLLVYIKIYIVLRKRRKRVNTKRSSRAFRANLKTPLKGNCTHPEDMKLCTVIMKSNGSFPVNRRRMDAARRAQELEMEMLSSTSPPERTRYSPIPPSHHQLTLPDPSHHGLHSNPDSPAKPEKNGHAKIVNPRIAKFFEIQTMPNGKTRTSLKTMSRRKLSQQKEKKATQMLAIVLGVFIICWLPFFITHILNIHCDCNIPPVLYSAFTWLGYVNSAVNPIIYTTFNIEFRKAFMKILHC

For the compound `COc1c(C(=O)NCCN2CCN(c3ccccc3[N+](=O)[O-])CC2)cc(Br)c2ccccc12` [4-Bromo-1-methoxy-naphthalene-2-carboxylic acid {2-[4-(2-nitro-phenyl)-piperazin-1-yl]-ethyl}-amide], the Ki (usually the equilibrium dissociation constant of an inhibitor or competing ligand from its target) was 151 nM in assay [1] and 24 nM in assay [2].
In assay [1], `COc1c(C(=O)NCCN2CCN(c3cccc(Cl)c3)CC2)cc(Br)c2ccccc12` [4-Bromo-1-methoxy-naphthalene-2-carboxylic acid {2-[4-(3-chloro-phenyl)-piperazin-1-yl]-ethyl}-amide] had a Ki of 703 nM. It took 28 nM to reach a half-maximal effect in assay [3] (EC50).
As to `COc1c(C(=O)NCCN2CCN(c3ccccc3)CC2)cc(Cl)c2ccccc12` [4-Chloro-1-methoxy-naphthalene-2-carboxylic acid [2-(4-phenyl-piperazin-1-yl)-ethyl]-amide], the Ki in assay [1] was 2530 nM; in assay [2], 55 nM.
In the same order, the values of `COc1c(C(=O)NCCN2CCN(c3ccccc3)CC2)ccc2ccccc12` [1-Methoxy-naphthalene-2-carboxylic acid [2-(4-phenyl-piperazin-1-yl)-ethyl]-amide] are 7000 nM and 270 nM.
On to `COc1c(C(=O)NCCN2CCN(c3ccc(C)cc3)CC2)cc(Br)c2ccccc12` [4-Bromo-1-methoxy-naphthalene-2-carboxylic acid [2-(4-p-tolyl-piperazin-1-yl)-ethyl]-amide], for which the Ki in assay [1] came to 996 nM; in assay [2], 260 nM.
Taken in the same sequence, the figures for `COc1cccc(N2CCN(CCNC(=O)c3cc(Br)c4ccccc4c3OC)CC2)c1` [4-Bromo-1-methoxy-naphthalene-2-carboxylic acid {2-[4-(3-methoxy-phenyl)-piperazin-1-yl]-ethyl}-amide] were 1290 nM and 652 nM.
Regarding `COc1c(C(=O)NCCN2CCN(c3ccccc3)CC2)cc(C#N)c2ccccc12` [4-Cyano-1-methoxy-naphthalene-2-carboxylic acid [2-(4-phenyl-piperazin-1-yl)-ethyl]-amide], the results for the Ki in assay [1] and in assay [2] were 71 nM and 131 nM, respectively.
In the same order, the values of `COc1ccccc1N1CCN(CCNC(=O)c2cc(Br)c3ccccc3c2OC)CC1` [4-Bromo-1-methoxy-naphthalene-2-carboxylic acid {2-[4-(2-methoxy-phenyl)-piperazin-1-yl]-ethyl}-amide] are 303 nM and 76 nM.
In assay [1], `COc1c(C(=O)NCCN2CCN(c3cccc(C)c3C)CC2)cc(Br)c2ccccc12` [4-Bromo-1-methoxy-naphthalene-2-carboxylic acid {2-[4-(2,3-dimethyl-phenyl)-piperazin-1-yl]-ethyl}-amide] showed a Ki of 1170 nM.
Turning to `COc1c(C(=O)NCCN2CCN(c3ccc(Cl)cc3)CC2)cc(Br)c2ccccc12` [4-Bromo-1-methoxy-naphthalene-2-carboxylic acid {2-[4-(4-chloro-phenyl)-piperazin-1-yl]-ethyl}-amide], in assay [2], the affinity, expressed as Ki, was 132 nM. In other words, the sub-micromolar range.
With `CCOc1c(C(=O)NCCN2CCN(c3ccccc3)CC2)cc(Br)c2ccccc12` [4-Bromo-1-ethoxy-naphthalene-2-carboxylic acid [2-(4-phenyl-piperazin-1-yl)-ethyl]-amide], the Ki in assay [1] was over 10000 nM; in assay [2], 267 nM.
For the compound `COc1c(C(=O)NCCN2CCN(c3ccccc3Cl)CC2)cc(Br)c2ccccc12` [4-Bromo-1-methoxy-naphthalene-2-carboxylic acid {2-[4-(2-chloro-phenyl)-piperazin-1-yl]-ethyl}-amide], the results for the inhibition constant (Ki) in assay [1] and in assay [2] were 517 nM and 39 nM, respectively. Besides, the EC50 (usually the concentration giving half of the maximal effect) in assay [3] stood at 83 nM.
Turning to `COc1ccc(N2CCN(CCNC(=O)c3cc(Br)c4ccccc4c3OC)CC2)cc1` [4-Bromo-1-methoxy-naphthalene-2-carboxylic acid {2-[4-(4-methoxy-phenyl)-piperazin-1-yl]-ethyl}-amide], the Ki in assay [1] was found to be 5690 nM; in assay [2], 731 nM.
In the same order, the values of `COc1c(C(=O)NCCN2CCN(c3ccccc3)CC2)cc(Br)c2ccccc12` [4-Bromo-1-methoxy-naphthalene-2-carboxylic acid [2-(4-phenyl-piperazin-1-yl)-ethyl]-amide] are 1890 nM and 24 nM.
With `COc1c(C(=O)NCCN2CCN(c3ccc([N+](=O)[O-])cc3)CC2)cc(Br)c2ccccc12` [4-Bromo-1-methoxy-naphthalene-2-carboxylic acid {2-[4-(4-nitro-phenyl)-piperazin-1-yl]-ethyl}-amide], the Ki in assay [1] stood at 5690 nM; in assay [2], 731 nM.
Taken in the same sequence, the figures for `COc1c(C(=O)NCCN2CCN(c3cccc(C)c3)CC2)cc(Br)c2ccccc12` [4-Bromo-1-methoxy-naphthalene-2-carboxylic acid [2-(4-m-tolyl-piperazin-1-yl)-ethyl]-amide] were 1210 nM and 339 nM.
`COc1c(C(=O)NCCN2CCN(c3ccccc3C)CC2)cc(Br)c2ccccc12` [4-Bromo-1-methoxy-naphthalene-2-carboxylic acid [2-(4-o-tolyl-piperazin-1-yl)-ethyl]-amide]: the inhibitory constant (Ki) in assay [1] was 484 nM; in assay [2], 66 nM. The EC50 in assay [3] was over 1000 nM.
In the case of `O=C(NCCN1CCN(c2ccccc2)CC1)c1cc(Br)c2ccccc2c1` [4-Bromo-naphthalene-2-carboxylic acid [2-(4-phenyl-piperazin-1-yl)-ethyl]-amide], the Ki in assay [1] and in assay [2] was over 10000 nM in each case.
Consider `COc1c(C(=O)NCCN2CCN(c3cccc([N+](=O)[O-])c3)CC2)cc(Br)c2ccccc12` [4-Bromo-1-methoxy-naphthalene-2-carboxylic acid {2-[4-(3-nitro-phenyl)-piperazin-1-yl]-ethyl}-amide], for which the inhibitory constant (Ki) was 1290 nM in assay [1] and 652 nM in assay [2].
In the same order, the values of `O=C(NCCN1CCN(c2ccccc2)CC1)c1cc(Br)c2ccccc2c1O` [4-Bromo-1-hydroxy-naphthalene-2-carboxylic acid [2-(4-phenyl-piperazin-1-yl)-ethyl]-amide] are over 10000 nM and over 10000 nM.
